# Measured values published in ChEMBL document CHEMBL1201862, “PubChem BioAssay data set” (2004).
# The source made the active and inactive calls.
# Columns and labels:
# INS1 = test: beta cell apoptosis inhibitors, cytokine rescue, dose response, luminescence, retest (AID 449756); type: functional, cell-based; details: Rattus norvegicus, INS1;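 also: cell death triggered by IL-1 beta plus TNF-alpha plus IFN-gamma mixture; protective hits raise ATP signal compared with cytokine alone wells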
# [1] = IGROV1 ovarian cancer cell cytotoxicity, dose response, PAX8 inhibitor project, plate reader, dry powder samples (AID 743043); type: functional, cell-based; details: IGROV-1
# Vero [2] = test: cells; type: functional, cell-based; details: Chlorocebus sabaeus
# [3] = inhibitors of firefly luciferase expression or activity, dose response, H4 neuroglioma cells, luminescence (AID 1990); type: functional, cell-based
# [4] = IOSE-T80 ovarian epithelial cell cytotoxicity, dose response, cytotoxicity control for PAX8 inhibitor project, plate reader, dry powder samples (AID 743045); type: functional, cell-based
# [5] = HEK293T cell cytotoxicity, dose response, cytotoxicity control for HIV Vif inhibitor project, cherry-picks (AID 652208); type: functional, cell-based
# BJ [6] = test: cytotoxicity toward BJ-TERT-LT-ST fibroblasts, dose response, cell-based, RAS-independent, luminescence (AID 1935); type: functional; details: Homo sapiens;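 also: BJ fibroblasts immortalized with TERT plus LT and ST oncogenes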
# BJ [7] = test: cytotoxicity toward BJ-TERT fibroblasts, dose response, cell-based, RAS-independent, luminescence (AID 1933); type: functional; details: Homo sapiens
# [8] = cytotoxicity in OV-90 ovarian cancer cells, dose response, PAX8 inhibitor project, cell-based, plate reader, dry powder, SA8 (AID 743149); type: functional
# [9] = cytotoxicity in OVCAR4 cells, dose response, cytotoxicity control for PAX8 inhibitor project, cell-based, plate reader, dry powder, SA11 (AID 743150); type: functional; details: OVCAR-4
# [10] = cytotoxicity toward DRD oncogenic fibroblasts, dose response, cell-based, non-viral oncogenic, luminescence (AID 1934); type: functional; details: Homo sapiens
# BJ [11] = test: cytotoxicity toward Ras-transformed BJeLR fibroblasts, dose response, cell-based, alamar blue fluorescence, cherrypicked samples (AID 2631); type: functional; details: Homo sapiens;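 also: confirmatory dose-response assay in RAS-dependent BJ fibroblasts engineered with TERT, LT and ST, with cytotoxicity read by fluorescence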
# [12] = cytotoxicity in COV434 cells, dose response, cytotoxicity control for PAX8 inhibitor project, cell-based, plate reader, dry powder, SA7 (AID 743145); type: functional
# [13] = inhibitors of SNCA 5'UTR-driven reporter translation, confirmation, H4 neuroglioma cells, luminescence (AID 1988); type: functional, cell-based
# [14] = PAX5 activity inhibitors, dose response, selectivity assay for PAX8 inhibitor project, cell-based, plate reader, dry powder samples (AID 743047); type: functional;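 also: HEK293 cells carrying a Pax5 driven CD19 promoter luciferase reporter; potency of inhibitors that lower reporter luminescence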
# [15] = cytotoxicity dependent on PAX8, dose response, cell-based, plate reader, dry powder (AID 743049); type: functional
# [16] = NIH:OVCAR-3 ovarian cancer cell cytotoxicity, dose response, PAX8 inhibitor project, plate reader, dry powder samples (AID 743044); type: functional, cell-based
# [17] = PAX2 cell-based inhibition, dose response, selectivity assay for PAX8 inhibitor project, plate reader, dry powder samples (AID 743048); type: functional;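 also: HEK293 cells carrying a WT1 promoter luciferase reporter driven by expressed Pax2; potency is for inhibition of Pax2 driven reporter signal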
# [18] = target: Protein disulfide-isomerase (Homo sapiens, UniProt P07237); test: PDI inhibitors, insulin aggregation turbidity, dose response, biochemical, absorbance, cherry-picked samples (AID 602350); type: functional
# Vero [19] = test: cells; type: functional; details: Chlorocebus sabaeus
# [20] = A2780 ovarian cancer cell cytotoxicity, dose response, cytotoxicity control, plate reader, dry powder samples (AID 743046); type: functional, cell-based
# Paired box protein Pax-8 = Paired box protein Pax-8 (Homo sapiens, UniProt Q06710); test: inhibitors of PAX8-driven TPO luciferase reporter, dose response, RMG-I cells, cherry-pick (AID 687027); type: functional, cell-based;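 also: luciferase reporter driven by Pax8 target thyroperoxidase promoter measured by SteadyGlo luminescence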
# Paired box protein Pax-8, sequence (Q06710 whole entry): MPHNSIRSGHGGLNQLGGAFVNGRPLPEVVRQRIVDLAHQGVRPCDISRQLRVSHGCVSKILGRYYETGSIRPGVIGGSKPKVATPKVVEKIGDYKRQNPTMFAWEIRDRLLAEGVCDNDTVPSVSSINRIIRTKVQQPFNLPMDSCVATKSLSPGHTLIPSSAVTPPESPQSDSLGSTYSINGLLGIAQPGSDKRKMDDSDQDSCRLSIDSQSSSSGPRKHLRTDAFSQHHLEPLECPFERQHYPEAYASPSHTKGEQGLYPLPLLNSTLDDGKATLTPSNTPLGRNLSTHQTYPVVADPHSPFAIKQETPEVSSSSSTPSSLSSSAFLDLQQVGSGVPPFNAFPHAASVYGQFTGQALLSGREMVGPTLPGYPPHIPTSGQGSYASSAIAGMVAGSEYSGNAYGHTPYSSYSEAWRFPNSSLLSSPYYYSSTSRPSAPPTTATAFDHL
# BJ [21] = test: cells; type: functional, cell-based; details: Homo sapiens
# [22] = cytotoxicity in COV362 ovarian cancer cells, dose response, cytotoxicity control for PAX8 inhibitor project, cell-based, plate reader, dry powder, SA12 (AID 743144); type: functional
# [23] = Luminescence Cell-Based Dose Response HTS to Identify Inhibitors of 5'UTR Stem-Loop Driven Prion Protein mRNA Translation in H4 Neuroglioblastoma Cells. [Related pubchem assays: 1827 (Project Summary), 1813 (Primary HTS)]; type: functional
# [24] = target: T1, Heat shock factor protein 1 (Mus musculus, UniProt P38532); test: HSF1 potentiators in luciferase reporter cells, confirmation, cell-based, NIH3T3, luminescence, dose retest (AID 435004); type: functional;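 also: stress induced by proteasome inhibitor MG132 added 30 min after compound; luciferase reporter driven by HSF1 response element in NIH3T3 cells; actives raise luminescence as potentiators of the MG132 stress response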
# T1 sequence (P38532 whole entry): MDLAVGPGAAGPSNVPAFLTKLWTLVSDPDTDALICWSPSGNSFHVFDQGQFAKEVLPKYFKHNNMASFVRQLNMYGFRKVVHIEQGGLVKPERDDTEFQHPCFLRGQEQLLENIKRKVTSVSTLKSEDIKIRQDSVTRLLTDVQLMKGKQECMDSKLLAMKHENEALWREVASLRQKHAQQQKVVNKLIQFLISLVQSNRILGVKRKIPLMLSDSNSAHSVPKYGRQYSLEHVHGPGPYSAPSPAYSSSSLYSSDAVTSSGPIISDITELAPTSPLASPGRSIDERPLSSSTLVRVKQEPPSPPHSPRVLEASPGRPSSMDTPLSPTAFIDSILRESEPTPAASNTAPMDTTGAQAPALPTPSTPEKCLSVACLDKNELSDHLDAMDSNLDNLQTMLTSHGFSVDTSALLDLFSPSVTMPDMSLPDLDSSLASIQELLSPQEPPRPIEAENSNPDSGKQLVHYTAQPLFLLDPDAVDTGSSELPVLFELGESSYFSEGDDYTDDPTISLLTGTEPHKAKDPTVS
# [25] = Fluorescence-based cell-based high throughput dose response assay for inhibitors of the interaction of nucleotide-binding oligomerization domain containing 2 (NOD2) and the receptor-interacting serine-threonine kinase 2 (RIPK2).; type: functional; details: Homo sapiens
# [26] = target: Inhibitor of nuclear factor kappa-B kinase subunit epsilon (Homo sapiens, UniProt Q14164); test: Navigating the Kinome. Panel member name: IKBKE; type: functional
# Activin receptor type-1 = Activin receptor type-1 (Homo sapiens, UniProt Q04771); test: Navigating the Kinome. Panel member name: ACVR1; type: functional
# [27] = target: Dual specificity protein kinase CLK4 (Homo sapiens, UniProt Q9HAZ1); type: functional
# [28] = target: cAMP-dependent protein kinase catalytic subunit PRKX (Homo sapiens, UniProt P51817); type: functional
# cAMP-dependent protein kinase catalytic subunit PRKX, sequence (P51817 whole entry): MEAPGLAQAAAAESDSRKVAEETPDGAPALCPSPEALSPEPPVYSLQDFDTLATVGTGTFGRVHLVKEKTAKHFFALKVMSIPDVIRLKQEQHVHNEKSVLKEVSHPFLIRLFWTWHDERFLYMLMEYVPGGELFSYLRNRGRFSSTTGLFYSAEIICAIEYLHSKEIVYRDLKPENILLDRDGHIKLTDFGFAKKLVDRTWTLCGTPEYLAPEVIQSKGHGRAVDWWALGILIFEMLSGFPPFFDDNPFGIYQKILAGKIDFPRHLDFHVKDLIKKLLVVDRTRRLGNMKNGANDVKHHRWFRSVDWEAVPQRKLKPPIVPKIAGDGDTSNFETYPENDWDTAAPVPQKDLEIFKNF
# Aurora kinase A = Aurora kinase A (Homo sapiens, UniProt O14965); type: functional;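 also: value from the Navigating the Kinome kinase panel profiling, panel entry STK6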
# [29] = target: Death-associated protein kinase 3 (Homo sapiens, UniProt O43293); type: functional;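 also: measured as one member of a kinome-wide profiling panel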
# [30] = target: Cyclin-dependent kinase 5 (Homo sapiens, UniProt Q00535); type: functional;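 also: CDK5 measured as one member of a kinase profiling panel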
# [31] = target: Cyclin-dependent kinase 8 (Homo sapiens, UniProt P49336); test: Navigating the Kinome. Panel member name: CDK8; type: functional
# [32] = target: 5'-AMP-activated protein kinase catalytic subunit alpha-1 (Homo sapiens, UniProt Q13131); type: functional
# [33] = target: Dual specificity tyrosine-phosphorylation-regulated kinase 1B (Homo sapiens, UniProt Q9Y463); test: Navigating the Kinome. Panel member name: DYRK1B; type: functional
# [34] = target: Platelet-derived growth factor receptor alpha (Homo sapiens, UniProt P16234); test: Navigating the Kinome. Panel member name: PDGFRA; type: functional
# [35] = target: Leukocyte tyrosine kinase receptor (Homo sapiens, UniProt P29376); test: Navigating the Kinome. Panel member name: LTK; type: functional
# [36] = target: Serine/threonine-protein kinase Nek2 (Homo sapiens, UniProt P51955); type: functional
# [37] = target: Tyrosine-protein kinase receptor TYRO3 (Homo sapiens, UniProt Q06418); type: functional;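 also: TYRO3 value obtained as one member of a kinome-wide profiling panel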
# [38] = target: Cyclin-dependent kinase 9 (Homo sapiens, UniProt P50750); type: functional;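 also: value from the CDK9 entry of a kinome-spanning kinase panel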
# [39] = target: Leucine-rich repeat serine/threonine-protein kinase 2 (Homo sapiens, UniProt Q5S007); type: functional;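 also: value from a broad kinome-wide panel profiling study in which LRRK2 was one of the kinases tested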
# LIM domain kinase 1 = LIM domain kinase 1 (Homo sapiens, UniProt P53667); test: Navigating the Kinome. Panel member name: LIMK1; type: functional
# LIM domain kinase 1, sequence (P53667 whole entry, the tested form may be a part): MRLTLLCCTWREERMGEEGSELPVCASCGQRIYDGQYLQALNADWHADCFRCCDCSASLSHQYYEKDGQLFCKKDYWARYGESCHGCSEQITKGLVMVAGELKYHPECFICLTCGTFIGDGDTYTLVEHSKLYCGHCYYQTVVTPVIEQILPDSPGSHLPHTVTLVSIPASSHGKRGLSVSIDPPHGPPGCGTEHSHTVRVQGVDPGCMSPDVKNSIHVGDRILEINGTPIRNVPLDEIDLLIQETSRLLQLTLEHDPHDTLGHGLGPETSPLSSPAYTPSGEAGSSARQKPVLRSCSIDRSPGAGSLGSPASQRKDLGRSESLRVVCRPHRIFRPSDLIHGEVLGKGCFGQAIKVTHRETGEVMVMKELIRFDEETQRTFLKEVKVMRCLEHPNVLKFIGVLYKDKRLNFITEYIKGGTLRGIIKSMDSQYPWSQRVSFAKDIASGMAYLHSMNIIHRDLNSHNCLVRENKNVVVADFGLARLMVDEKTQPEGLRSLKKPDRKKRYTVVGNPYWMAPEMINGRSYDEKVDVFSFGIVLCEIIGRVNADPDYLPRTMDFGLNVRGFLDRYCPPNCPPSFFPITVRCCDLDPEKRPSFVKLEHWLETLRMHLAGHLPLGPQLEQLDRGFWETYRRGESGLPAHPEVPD
# [40] = target: Serine/threonine-protein kinase TBK1 (Homo sapiens, UniProt Q9UHD2); test: Navigating the Kinome. Panel member name: TBK1; type: functional
# [41] = target: Dual specificity tyrosine-phosphorylation-regulated kinase 1A (Homo sapiens, UniProt Q13627); type: functional;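 also: measured against DYRK1A as one member of a broad kinome profiling panel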
# [42] = target: Serine/threonine-protein kinase BRSK1 (Homo sapiens, UniProt Q8TDC3); type: functional;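 also: measured within a kinome-wide kinase panel, with the target listed as KIAA1811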
# Aurora kinase B = Aurora kinase B (Homo sapiens, UniProt Q96GD4); type: functional
# [43] = target: Receptor-type tyrosine-protein kinase FLT3 (Homo sapiens, UniProt P36888); type: functional;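 also: FLT3 was tested as one member of a kinome-wide kinase panel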
# [44] = target: MAP kinase-interacting serine/threonine-protein kinase 2 (Homo sapiens, UniProt Q9HBH9); type: functional
# [45] = target: Interleukin-1 receptor-associated kinase 4 (Homo sapiens, UniProt Q9NWZ3); type: functional
# Interleukin-1 receptor-associated kinase 4, sequence (Q9NWZ3 whole entry): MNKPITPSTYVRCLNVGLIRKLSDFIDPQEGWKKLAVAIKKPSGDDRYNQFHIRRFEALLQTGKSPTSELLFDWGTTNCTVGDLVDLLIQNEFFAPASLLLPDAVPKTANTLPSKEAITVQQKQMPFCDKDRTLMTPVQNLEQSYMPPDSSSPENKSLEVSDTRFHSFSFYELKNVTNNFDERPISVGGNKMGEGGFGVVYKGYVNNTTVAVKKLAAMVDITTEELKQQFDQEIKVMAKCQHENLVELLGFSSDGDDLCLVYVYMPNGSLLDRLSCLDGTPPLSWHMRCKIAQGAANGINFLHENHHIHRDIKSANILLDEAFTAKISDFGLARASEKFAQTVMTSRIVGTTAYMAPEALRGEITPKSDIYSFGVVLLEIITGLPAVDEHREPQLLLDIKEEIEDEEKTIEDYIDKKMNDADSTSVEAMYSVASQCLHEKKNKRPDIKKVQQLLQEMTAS
# [46] = target: Serine/threonine-protein kinase PAK 1 (Homo sapiens, UniProt Q13153); type: functional
# [47] = target: Serine/threonine-protein kinase pim-3 (Homo sapiens, UniProt Q86V86); type: functional;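 also: value obtained as one member of a broad kinase panel profiling effort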
# [48] = target: Serine/threonine-protein kinase DCLK1 (Homo sapiens, UniProt O15075); type: functional;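 also: affinity for DCLK1 (listed as DCAMKL1) measured as one member of a kinome-wide kinase profiling panel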
# Serine/threonine-protein kinase DCLK1, sequence (O15075 whole entry): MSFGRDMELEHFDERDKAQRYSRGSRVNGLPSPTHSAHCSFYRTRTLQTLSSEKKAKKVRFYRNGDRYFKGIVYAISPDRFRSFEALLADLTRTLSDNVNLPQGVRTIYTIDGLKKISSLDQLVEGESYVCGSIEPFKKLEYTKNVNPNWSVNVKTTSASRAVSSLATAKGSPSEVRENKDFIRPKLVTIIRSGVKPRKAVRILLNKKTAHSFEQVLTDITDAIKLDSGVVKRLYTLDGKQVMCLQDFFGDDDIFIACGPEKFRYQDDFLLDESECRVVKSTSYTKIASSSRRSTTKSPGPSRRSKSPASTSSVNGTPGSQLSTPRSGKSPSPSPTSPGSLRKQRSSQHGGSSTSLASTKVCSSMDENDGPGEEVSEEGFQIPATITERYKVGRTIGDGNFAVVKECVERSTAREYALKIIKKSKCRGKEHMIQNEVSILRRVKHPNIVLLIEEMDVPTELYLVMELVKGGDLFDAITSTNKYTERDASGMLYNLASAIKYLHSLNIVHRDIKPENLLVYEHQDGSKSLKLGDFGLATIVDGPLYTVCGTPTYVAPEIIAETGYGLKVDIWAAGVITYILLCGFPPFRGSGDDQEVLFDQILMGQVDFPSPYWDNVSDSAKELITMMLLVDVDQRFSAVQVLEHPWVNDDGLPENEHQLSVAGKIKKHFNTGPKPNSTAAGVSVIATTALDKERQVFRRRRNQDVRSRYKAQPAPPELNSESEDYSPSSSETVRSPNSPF
# [49] = target: RAC-gamma serine/threonine-protein kinase (Homo sapiens, UniProt Q9Y243); type: functional
# [50] = target: Serine/threonine-protein kinase pim-1 (Homo sapiens, UniProt P11309); type: functional
# [51] = target: Serine/threonine-protein kinase MRCK alpha (Homo sapiens, UniProt Q5VT25); type: functional
# Serine/threonine-protein kinase MRCK alpha, sequence (Q5VT25 whole entry): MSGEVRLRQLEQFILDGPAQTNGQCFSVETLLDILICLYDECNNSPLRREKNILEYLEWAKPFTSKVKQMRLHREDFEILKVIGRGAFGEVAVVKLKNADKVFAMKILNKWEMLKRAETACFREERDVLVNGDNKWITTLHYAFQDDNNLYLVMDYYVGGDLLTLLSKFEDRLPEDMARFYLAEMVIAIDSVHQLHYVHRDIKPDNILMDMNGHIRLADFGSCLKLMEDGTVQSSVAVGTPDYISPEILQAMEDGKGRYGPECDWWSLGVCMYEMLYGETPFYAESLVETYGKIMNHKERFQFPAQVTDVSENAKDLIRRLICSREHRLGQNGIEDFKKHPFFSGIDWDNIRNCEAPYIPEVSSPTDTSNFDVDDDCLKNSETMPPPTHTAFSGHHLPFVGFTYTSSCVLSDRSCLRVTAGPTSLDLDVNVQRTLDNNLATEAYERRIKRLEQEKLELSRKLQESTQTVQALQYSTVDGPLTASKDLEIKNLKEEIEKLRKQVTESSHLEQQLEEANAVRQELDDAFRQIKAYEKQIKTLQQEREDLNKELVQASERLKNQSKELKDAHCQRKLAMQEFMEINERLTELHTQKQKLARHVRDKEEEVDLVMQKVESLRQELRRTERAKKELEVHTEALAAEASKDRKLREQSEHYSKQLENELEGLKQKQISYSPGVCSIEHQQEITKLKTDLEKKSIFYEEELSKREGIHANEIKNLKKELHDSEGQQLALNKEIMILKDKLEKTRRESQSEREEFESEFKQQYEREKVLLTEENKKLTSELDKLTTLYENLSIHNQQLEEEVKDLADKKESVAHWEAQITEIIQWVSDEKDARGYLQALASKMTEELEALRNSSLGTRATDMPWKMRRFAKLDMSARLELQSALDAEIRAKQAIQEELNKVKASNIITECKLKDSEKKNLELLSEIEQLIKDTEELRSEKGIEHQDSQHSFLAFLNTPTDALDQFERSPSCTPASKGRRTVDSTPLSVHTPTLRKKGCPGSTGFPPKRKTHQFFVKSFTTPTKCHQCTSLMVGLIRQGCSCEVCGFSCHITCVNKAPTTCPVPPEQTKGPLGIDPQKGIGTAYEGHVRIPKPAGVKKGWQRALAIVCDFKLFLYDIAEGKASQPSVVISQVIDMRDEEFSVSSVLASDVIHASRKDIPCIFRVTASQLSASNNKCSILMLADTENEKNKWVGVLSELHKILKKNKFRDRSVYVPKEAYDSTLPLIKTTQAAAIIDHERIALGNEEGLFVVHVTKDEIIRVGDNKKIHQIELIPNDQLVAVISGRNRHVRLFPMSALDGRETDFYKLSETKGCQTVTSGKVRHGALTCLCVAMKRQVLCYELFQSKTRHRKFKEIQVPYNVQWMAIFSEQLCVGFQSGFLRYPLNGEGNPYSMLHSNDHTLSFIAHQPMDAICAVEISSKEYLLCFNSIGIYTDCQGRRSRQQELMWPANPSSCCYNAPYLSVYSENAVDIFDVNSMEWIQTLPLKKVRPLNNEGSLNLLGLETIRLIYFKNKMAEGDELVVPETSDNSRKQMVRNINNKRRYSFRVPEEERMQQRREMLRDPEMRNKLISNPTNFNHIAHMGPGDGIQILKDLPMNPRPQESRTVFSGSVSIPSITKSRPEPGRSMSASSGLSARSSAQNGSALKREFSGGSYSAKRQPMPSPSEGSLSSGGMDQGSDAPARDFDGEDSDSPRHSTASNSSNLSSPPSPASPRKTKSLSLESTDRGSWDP
# [52] = target: Multidrug resistance protein CDR1 (Candida albicans, UniProt P43071); test: CaCDR1 efflux pump inhibitors in yeast, dose response, S. cerevisiae AD1-8u, singleplex, Cherry Pick1 hits (AID 588606); type: functional
# [53] = target: Benomyl/methotrexate resistance protein (Candida albicans, UniProt P28873); test: CaMdr1 efflux pump inhibitor potency, dose response, singleplex, Cherry Pick1 hits (AID 588608); type: functional
# Benomyl/methotrexate resistance protein, sequence (P28873 whole entry): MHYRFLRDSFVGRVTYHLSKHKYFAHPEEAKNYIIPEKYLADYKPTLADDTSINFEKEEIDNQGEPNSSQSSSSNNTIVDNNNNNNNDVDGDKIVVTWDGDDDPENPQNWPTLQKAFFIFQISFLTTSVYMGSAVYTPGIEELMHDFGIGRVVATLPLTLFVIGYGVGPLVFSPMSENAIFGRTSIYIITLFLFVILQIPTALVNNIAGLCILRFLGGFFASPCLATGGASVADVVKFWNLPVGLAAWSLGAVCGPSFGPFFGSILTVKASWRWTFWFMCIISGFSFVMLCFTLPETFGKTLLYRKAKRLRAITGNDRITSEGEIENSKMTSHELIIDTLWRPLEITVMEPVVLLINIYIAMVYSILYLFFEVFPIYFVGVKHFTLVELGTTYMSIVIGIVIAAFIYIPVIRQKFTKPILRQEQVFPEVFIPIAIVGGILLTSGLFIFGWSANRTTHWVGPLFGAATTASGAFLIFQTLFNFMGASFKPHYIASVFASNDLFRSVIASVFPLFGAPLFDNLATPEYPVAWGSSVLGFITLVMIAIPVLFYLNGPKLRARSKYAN
# Beta-galactosidase = Beta-galactosidase (Escherichia coli, UniProt Q8VNN2); test: Dose response counterscreen for EBI2 assay utilizing the enzyme, b-galactosidase.; type: functional
# [54] = target: Multidrug resistance protein CDR2 (Candida albicans (strain SC5314 / ATCC MYA-2876) (Yeast), UniProt P78595); test: CaCDR2 efflux pump inhibitors in yeast, dose response, S. cerevisiae AD1-8u, singleplex, Cherry Pick1 hits (AID 588604); type: functional
smiles,measurement,setting,value
COc1ccc(/C=C2\CN(Cc3ccccc3)C/C(=C\c3ccc(OC)c(O)c3)C2=O)cc1O,AC50,INS1,4.23 µM (active)
same,AC50,[1],21.6 µM (active)
same,IC50,Vero [2],23.2 µM (active)
same,EC50,[3],8.62 µM (inconclusive)
same,AC50,[4],8.94 µM (active)
same,AC50,[5],5.24 µM (active)
same,EC50,BJ [6],2.23 µM (active)
same,EC50,BJ [7],2.04 µM (active)
same,AC50,[8],3.79 µM (active)
same,AC50,[9],4.93 µM (active)
same,EC50,[10],2.65 µM (active)
same,EC50,BJ [11],0.435 µM (active)
same,AC50,[12],4.16 µM (active)
same,EC50,[13],9.23 µM (inconclusive)
same,AC50,[14],14.3 µM (active)
same,AC50,[15],9.32 µM (active)
same,AC50,[16],7.31 µM (active)
same,AC50,[17],14.2 µM (active)
same,AC50,[18],2.98 µM (active)
same,CC50,Vero [19],2.75 µM (active)
same,AC50,[20],12.5 µM (active)
same,AC50,Paired box protein Pax-8,4.63 µM (active)
same,EC50,BJ [21],4.4 µM (active)
same,AC50,[22],4.34 µM (active)
same,EC50,[23],> 120 µM (not active)
same,EC50,[24],8.35 µM (active)
same,IC50,[25],5.53 µM (active)
Cc1cc(=O)[nH]c2[nH]n(-c3ccccc3)c(=O)c12,Ki,[26],50.1 µM (active)
same,Ki,Activin receptor type-1,79.4 µM (active)
same,Ki,[27],10 µM (active)
same,Ki,[28],63.1 µM (active)
same,Ki,Aurora kinase A,50.1 µM (active)
same,Ki,[29],63.1 µM (active)
same,Ki,[30],50.1 µM (active)
same,Ki,[31],39.8 µM (active)
same,Ki,[32],79.4 µM (active)
same,Ki,[33],12.6 µM (active)
same,Ki,[34],100 µM (active)
same,Ki,[35],20 µM (active)
same,Ki,[36],50.1 µM (active)
same,Ki,[37],50.1 µM (active)
same,Ki,[38],39.8 µM (active)
same,Ki,[39],39.8 µM (active)
same,Ki,LIM domain kinase 1,12.6 µM (active)
same,Ki,[40],50.1 µM (active)
same,Ki,[41],20 µM (active)
NC(=O)c1cccc2[nH]c(-c3cccc(NCCN4CCCC4)n3)nc12,Ki,[42],5.01 µM (active)
same,Ki,Aurora kinase B,1.26 µM (active)
same,Ki,[43],1.26 µM (active)
same,Ki,[44],2.51 µM (active)
same,Ki,[45],> 10 µM (inactive)
same,Ki,[46],> 10 µM (inactive)
same,Ki,[47],1 µM (active)
same,Ki,[48],> 10 µM (inactive)
same,Ki,[49],> 10 µM (inactive)
same,Ki,[50],2 µM (active)
same,Ki,LIM domain kinase 1,> 10 µM (inactive)
same,Ki,[51],> 10 µM (inactive)
O=C1C(Cc2ccccc2)Nc2ncnc(N3CCN(c4ccccc4)CC3)c2N1Cc1ccc(Br)cc1 (configuration not stated),EC50,[52],11.1 µM (active)
same,EC50,[53],21.2 µM (active)
same,IC50,Beta-galactosidase,2.54 µM (active)
same,EC50,[54],10.8 µM (active)
